In PMC11540844, “Enhancing transcription–replication conflict targets ecDNA-positive cancers” (Nature, 2024):
Read-outs that look alike come from different tables or passages of the source. One block for each compound: values may come before it.

Legend:
[1] = test system: COLO320DM cells; experiment: Cell viability / CTG proliferation (CellTiter-Glo); format: cell-based, human; conditions: for IC50: Homo sapiens, COLO 320DM
Description: (§1) Cell viability assay was performed using CellTiter-Glo (Promega, catalgoue no. G8461) as previously described. Briefly, cells were seeded into a 384-well plate one day before adding inhibitors. Equal volumes of vehicles or drugs diluted at indicated concentration were added into each well the next day, and the cells were incubated for three days. On the third day, after equilibrating plate and CellTiter-Glo reagent at room temperature for 30 min, reagent was added into each well and incubated for 15 min at room temperature. Luminescence was measured using a Synergy 2 microplate reader. Four biological replicates were performed for each condition. Data analysis was performed with GraphPad Prism (v.9.1.0).

[2] = test system: COLO320HSR cells; experiment: Cell viability / CTG proliferation (CellTiter-Glo); format: cell-based, human; conditions: Homo sapiens, COLO-320-HSR; Extended Data Fig. 8
Description: as §1

[3] = test system: SNU16 cells; experiment: Cell viability (CellTiter-Glo); format: cell-based, human; conditions: Homo sapiens, SNU-16; Extended Data Fig. 8; read-out: IC50 SNU16
Description: as §1, with “(v.9.1.0). […]” for “(v.9.1.0).”

[4] = test system: GBM39HSR cells; experiment: Cell viability (CellTiter-Glo); format: cell-based, human; conditions: Homo sapiens; Extended Data Fig. 8
Description: as §1

[5] = test system: GBM39ec cells; experiment: Cell viability (CellTiter-Glo); format: cell-based, human; conditions: Homo sapiens; Extended Data Fig. 8
Description: as §1

[6] = test system: pCHK1-S345 in HT29 cells; experiment: AlphaLISA SureFire Ultra p-CHK1 (Ser345) assay in HT29 cells; format: cell-based; conditions: Homo sapiens, HT-29, 16 h, read-out: CHK1 cellular potency AlphaLisa (IC50)
Description: Compound activity in cells was measured using an AlphaLISA SureFire Ultra p-CHK1 (Ser345) assay (Perkin Elmer, catalogue no. ALSU-PCHK1-A10K). HT29 cells were cultured in McCoy 5 A medium with 10% FBS and 1% penicillin-streptomycin and seeded to 96-well plates (Corning, catalogue no. 3599). Compounds were serially diluted in DMSO over a 10-point dose range with 3-fold dilution, and compound solution was added to each well containing cells. Plates were centrifuged at 1,000 rpm for 30 s. Plates were incubated at 37 °C for 16 h. Supernatant was removed by flicking the plate against a paper towel. Wells were washed once with PBS solution. To each well was added freshly prepared lysis buffer and plates were agitated on a plate shaker at 400 rpm for 30 min. The 96-well cell plates were centrifuged at 1,500 rpm for 1 min. From each well was transferred 10 µl of the lysates to a 384-well Optiplate (Perkin Elmer, catalogue no. 6007290). To each well was added Acceptor Mix (5 µl) and the plates were sealed and wrapped in foil. Plates were agitated on a plate shaker for 2 min, then incubated at room temperature for 1 h. To each well was added Donor Mix (5 µl) and the plates were sealed and wrapped in foil. Plates were agitated on a plate shaker for 2 min, then incubated at room temperature for 1 h. AlphaLisa signal was read on an EnVision multimode plate reader (Perkin Elmer). […]

[7] = test system: γH2AX in COLO320DM and COLO320HSR cells; experiment: γH2AX IF combined with EdU labelling; format: cell-based, human; conditions: XL413 combined with CHIR-124
Description: (§2) Coverslips were coated with 100 µg ml^−^1 poly-L-lysine overnight or 10 µg ml^−^1 laminin for 1 h at 37 °C before seeding cells. Asynchronized cells were seeded onto slides and subject to different treatment. Where indicated, EdU was added to each well at 10 µg ml^−^1 30 min before collecting samples. IF and dual-IF DNA FISH staining were performed as described before. Briefly, slides were fixed with ice-cold 4% paraformaldehyde (PFA) for 15 min, followed by permeabilization with 0.5% Triton X-100 in PBS for 15 min at room temperature. Samples were blocked with 3% BSA in PBS for 1 h at room temperature before incubation with primary antibody diluted in blocking buffer at 4 °C overnight. Dilution ratio for first antibodies was as follows: γH2Ax, 1:500; pRPA2-S33, 1:1,000; pCHK1S345, 1:250; 53BP1, 1:500; cyclin A, 1:100; pRNAPII S2/S4, 1:1,000. […]
(§3) Image analysis and quantification were performed using the open-source software CellProfiler (v.4.2.1). For foci number analysis, DAPI staining, IF staining and DNA FISH channel were analysed through automatic thresholding and segmentation to cell nuclei, pRPA2S33/γH2AX foci and DNA FISH foci respectively. […] For fluorescence intensity measurement, nuclei were called based on DAPI channel through automatic thresholding and segmentation; mean fluorescence intensity was retrieved by measuring mean fluorescence intensity within each nucleus.

[8] = test system: pRPA2-S33 foci in COLO320DM cells; experiment: pRPA2-S33 IF (replication stress); format: cell-based, human
Description: as §2, §3

[9] = test system: pRPA2-S33 foci in COLO320HSR cells; experiment: pRPA2-S33 IF (replication stress); format: cell-based, human
Description: as §2, §3

[10] = test system: RS on HSR in GBM39HSR cells; experiment: pRPA2-S33 IF combined with EGFR FISH; format: cell-based, human
Description: as §2, §3

[11] = test system: RS on ecDNA in GBM39ec cells; experiment: pRPA2-S33 IF combined with EGFR FISH; format: cell-based, human
Description: as §2, §3

[12] = test system: pRNAPII S2/S4 in COLO320DM and COLO320HSR cells; experiment: Active RNA polymerase II IF; format: cell-based, human; conditions: triptolide treatment
Description: as §2, §3

[13] = test system: ssDNA on ecDNA amplicon in COLO320DM and COLO320HSR cells; experiment: KAS-seq (ssDNA mapping); format: cell-based, human; conditions: triptolide treatment
Description: KAS-seq experiments were carried out as previously described[12] with modifications. Briefly, cell culture media was supplemented with 5 mM N3-kethoxal (final concentration), and cells were incubated for 10 min at 37 °C in a six-well plate. Genomic DNA was then extracted using the Monarch gDNA Purification Kit (NEB T3010S) following the standard protocol but with elution using 50 µl 25 mM K3BO3 at pH 7.0. Click reaction was carried out by mixing 87.5 µl purified DNA, 2.5 µl 20 mM DBCO-PEG4-biotin (dimethylsulfoxide (DMSO) solution, Sigma, catalogue no. 760749) and 10 µl 10× PBS in a final volume of 100 µl. The reaction was then incubated at 37 °C for 90 min. DNA was purified using AMPure XP beads by adding 50 µl beads per 100 µl reaction, washing beads on a magnetic stand twice with 80% EtOH and eluting in 130 µl 25 mM K3BO3. Purified DNA was then sheared using a Covaris E220 instrument down to around 200–400 bp size. […]
Libraries were sequenced in a paired-end format on an Illumina NextSeq instrument using NextSeq 550 High-Output Kits (2 × 36 cycles). […] Duplicate reads were removed using picard-tools (v.1.99). […]

[14] = Extended Data Fig. 8, read-out: IC50 COLO320DM

SMILES: COc1cc2nc(-c3cc(F)ccc3O)nc(N[C@@H]3CNC[C@H]3C(C)(C)O)c2cc1OC [CCT241533]
differential inhibitory effect between ecDNA+ and ecDNA− isogenic cell lines ([1]; COLO320DM vs COLO320HSR viability, Extended Data Fig. 8a): no differential inhibitory effect | IC50 [1, 14]: 3740 nM | IC50 [2]: 4890 nM

IC50 [1, 14]: 34.1 nM | IC50 [2]: 78.1 nM | IC50 [3]: 8.48 nM
SMILES: COc1cccc(OCCCN)c1-c1cc(Nc2cnc(C#N)cn2)n[nH]1 [Ly2606368]
IC50 [4]: 66.1 nM | IC50 [5]: 48.8 nM

IC50 ([1]; COLO320DM cells, read-out: CTG proliferation ecDNA+ (IC50)): 1010 nM | IC50 [1, 14]: 1110 nM | IC50 [2]: 24700 nM | IC50 [6]: 1500 nM
SMILES: N#Cc1cnc(Nc2cc(NC[C@H]3CNCCO3)c(C(F)(F)F)cn2)cn1 [SRA737]

SMILES: O=c1[nH]c(C2CCCN2)nc2c1oc1ccc(Cl)cc12 (stereo not shown) [XL413]
effect on DNA damage induced by CHK1i (γH2AX IF) [7]: partially blocked

SMILES: CC(C)[C@]12O[C@H]1[C@@H]1O[C@]13[C@]1(O[C@H]1C[C@H]1C4=C(CC[C@@]13C)C(=O)OC4)[C@@H]2O [triptolide]
pRPA2-S33 foci [8]: significantly decreased | pRPA2-S33 foci [9]: negligible effect | RS on HSR (pRPA2-S33 IF and EGFR FISH) [10]: no obvious difference | RS on ecDNA (pRPA2-S33 IF and EGFR FISH) [11]: significantly decreased | transcriptional activity (active RNA polymerase II by IF) [12]: significantly decreased | ssDNA signals across the ecDNA amplicon (KAS-seq) [13]: drastic reduction
